Values joined by “and” are separate entries in the source; they are usually repeats but may differ in a detail not shown here. Identical values can stand only once.
Tests used:
[1] = Physical stability of mixture of Forms A and B on heat exposure; format: physicochemical; conditions: exposure to 230° C.
Method: Tt,B→A is between 37 and 54° C. […] (Table 19 below).

[2] = Binary interconversion (competitive) slurry experiments between Crystalline Forms A, B and C; format: physicochemical; conditions: from interconversion slurries
Method: Interconversion experiments are performed to test the hypothetical thermodynamic relationship between materials illustrated by the Energy—Temperature Diagram above. […] The choice of solvent affects the kinetics of polymorph conversion and not the thermodynamic relationship between polymorphic forms (Gu, C. H., Young, V. Jr., Grant, D. J., J. Pharm. Sci. 2001, 90 (11), 1878-1890).
Binary interconversion slurry experiments between Crystalline Forms A, B, and C in different solvent systems at temperatures spanning approximately 2 through 67° C. are summarized in Table 16 below. Saturated solutions are generated and then added to mixtures composed of approximately equivalent quantities of two of the polymorphs. The samples are slurried from overnight to three weeks and the solids harvested and analyzed by XRPD. The results of the interconversion studies indicate that the relative thermodynamic stability of the enantiotropes Crystalline Forms A, B, and C are correctly depicted by the proposed Energy—Temperature Diagram. In addition, Tt,C→B is expected below 2° C.

[3] = Accelerated stress conditions (relative humidity stress), solid form by XRPD; format: physicochemical; conditions: two weeks
Method: Relative Humidity Stress: Solids are stored at approximately 40° C./75% RH condition for a measured time period by placing the solids into a vial inside a sealed temperature/humidity chamber at the controlled condition. Samples are analyzed after removal from the stress environment.
Crystalline Forms A, B, and C are exposed to accelerated stress conditions for two weeks (Table 18 below). […] Crystalline Form C is metastable at this condition.
Experimental: Relative Humidity Stress
The following relative humidity jars (saturated salt solutions are used to generate desired relative humidity) are utilized: 75% RH (NaCl) and 56% RH (NaBr) (Nyqvist, H., Int. J. Pharm. Tech. &Prod. Mfr. 1983, 4 (2), 47-48).

[4] = Storage stability of solid form, XRPD after storage; format: physicochemical; conditions: 22 days of ambient storage
Method: Six scale-up attempts are conducted to prepare Crystalline Form C by cooling in isopropanol on approximately 50-150 mg scale (Table 11) and the solids tested by XRPD. At refrigerator temperature, precipitated solids yield Form B. Seeding with Form C after cooling in the refrigerator (no solids observed) and before placing in the freezer yield XRPD pattern of Form C with B peaks. Precipitation at freezer temperature results in solids with an XRPD pattern of Form C with A peaks. A solution placed in the freezer after cooling to room temperature with a lower concentration (7 mg/mL compared to 10 mg/mL) yields Form B. By crash cooling (ambient solution placed into dry ice/isopropanol), solids generated are a mixture of Forms B and A. The last attempt on an approximate 50-mg scale generates a mixture of Forms A and C.
An elliptically graded multilayer mirror is used to focus Cu Kα X-rays through the specimen and onto the detector. Prior to the analysis, a silicon specimen (NIST SRM 640e) is analyzed to verify the observed position of the Si 111 peak is consistent with the NIST-certified position. A specimen of the sample is sandwiched between 3-μm-thick films and analyzed in transmission geometry. A beam-stop, short antiscatter extension, and antiscatter knife edge are used to minimize the background generated by air. Soller slits for the incident and diffracted beams are used to minimize broadening from axial divergence. The diffraction pattern is collected using a scanning position-sensitive detector (X'Celerator) located 240 mm from the specimen and Data Collector software v. 2.2b. Data acquisition parameters are: Panalytical X-Pert Pro MPD PW3040 Pro, X-ray Tube: Cu (1.54059 Å), Voltage: 45 kV, Amperage: 40 mA, Scan Range: 1.00-39.99° 2θ, Step Size: 0.017° 2θ, Collection Time: 719 s, Scan Speed: 3.3°/min., Slit: DS: ½°, SS: null, Revolution Time: 1.0 s, Mode: Transmission.

[5] = biological target: norepinephrine reuptake (NE) (Homo sapiens, UniProt P23975); conditions: unbalanced triple reuptake inhibitor; cited from earlier work
Sequence of norepinephrine reuptake (NE) (P23975 whole entry): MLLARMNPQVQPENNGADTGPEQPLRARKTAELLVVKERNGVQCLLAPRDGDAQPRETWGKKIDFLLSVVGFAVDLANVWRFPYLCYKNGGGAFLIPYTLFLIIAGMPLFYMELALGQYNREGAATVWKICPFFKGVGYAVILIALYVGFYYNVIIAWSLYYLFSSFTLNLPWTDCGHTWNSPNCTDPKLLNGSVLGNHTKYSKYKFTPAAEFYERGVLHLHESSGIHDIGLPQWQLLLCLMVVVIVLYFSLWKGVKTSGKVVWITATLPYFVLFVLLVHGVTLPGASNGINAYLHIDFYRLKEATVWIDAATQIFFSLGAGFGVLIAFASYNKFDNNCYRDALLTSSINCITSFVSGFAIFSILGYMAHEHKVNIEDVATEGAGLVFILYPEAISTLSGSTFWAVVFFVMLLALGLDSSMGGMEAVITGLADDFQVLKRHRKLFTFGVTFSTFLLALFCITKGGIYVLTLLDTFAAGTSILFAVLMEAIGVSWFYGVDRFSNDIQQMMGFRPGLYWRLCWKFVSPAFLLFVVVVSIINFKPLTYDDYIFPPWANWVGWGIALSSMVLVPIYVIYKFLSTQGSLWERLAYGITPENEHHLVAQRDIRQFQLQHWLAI

[6] = biological target: dopamine reuptake (DA) (Homo sapiens, UniProt Q01959); conditions: unbalanced triple reuptake inhibitor; cited from earlier work
Sequence of dopamine reuptake (DA) (Q01959 whole entry): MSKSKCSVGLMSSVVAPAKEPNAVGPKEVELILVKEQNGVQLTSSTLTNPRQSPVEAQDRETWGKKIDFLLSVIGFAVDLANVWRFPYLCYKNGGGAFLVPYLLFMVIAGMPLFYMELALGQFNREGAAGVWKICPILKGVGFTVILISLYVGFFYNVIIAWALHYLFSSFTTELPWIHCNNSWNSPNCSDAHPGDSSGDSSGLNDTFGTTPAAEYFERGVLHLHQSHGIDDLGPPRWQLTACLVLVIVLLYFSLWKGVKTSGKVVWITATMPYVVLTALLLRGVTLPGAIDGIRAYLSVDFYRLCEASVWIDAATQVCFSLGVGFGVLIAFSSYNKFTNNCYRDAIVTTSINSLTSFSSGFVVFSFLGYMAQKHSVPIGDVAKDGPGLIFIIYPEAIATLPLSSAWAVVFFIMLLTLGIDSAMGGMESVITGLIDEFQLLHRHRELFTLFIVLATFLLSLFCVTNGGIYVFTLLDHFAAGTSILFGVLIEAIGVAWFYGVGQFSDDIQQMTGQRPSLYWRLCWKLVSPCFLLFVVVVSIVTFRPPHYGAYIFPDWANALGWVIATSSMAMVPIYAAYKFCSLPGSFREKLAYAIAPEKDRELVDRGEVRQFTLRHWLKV

[7] = biological target: serotonin reuptake (5-HT) (Homo sapiens, UniProt P31645); conditions: unbalanced triple reuptake inhibitor; cited from earlier work
Sequence of serotonin reuptake (5-HT) (P31645 whole entry): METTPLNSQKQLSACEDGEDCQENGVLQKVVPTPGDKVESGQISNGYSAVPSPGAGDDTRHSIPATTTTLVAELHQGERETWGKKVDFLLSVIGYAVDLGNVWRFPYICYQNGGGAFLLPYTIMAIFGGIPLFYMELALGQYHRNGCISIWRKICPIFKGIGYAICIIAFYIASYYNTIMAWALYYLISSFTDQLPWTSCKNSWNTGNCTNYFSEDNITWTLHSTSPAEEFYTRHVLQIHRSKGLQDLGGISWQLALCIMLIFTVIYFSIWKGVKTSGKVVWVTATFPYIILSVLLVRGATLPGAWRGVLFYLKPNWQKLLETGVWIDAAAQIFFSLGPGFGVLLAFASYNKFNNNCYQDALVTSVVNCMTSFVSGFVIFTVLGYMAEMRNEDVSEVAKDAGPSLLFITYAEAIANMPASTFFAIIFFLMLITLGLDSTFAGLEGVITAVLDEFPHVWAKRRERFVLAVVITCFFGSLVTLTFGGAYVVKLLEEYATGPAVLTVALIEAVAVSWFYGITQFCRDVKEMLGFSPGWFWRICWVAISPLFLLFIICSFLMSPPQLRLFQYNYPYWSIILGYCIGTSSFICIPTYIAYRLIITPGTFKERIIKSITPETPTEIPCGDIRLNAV

[8] = Solution calorimetry (SolCal), heats of solution in methanol; format: physicochemical; conditions: 25° C.
Method: For each test, two heats of solution are obtained—one calculated using a calibration preceding the sample analysis and one calculated using a calibration following the sample analysis. Clear solutions are observed after each test.
Solution calorimetry is performed using a Thermometric 2225 Precision Solution calorimeter, a semi-adiabatic calorimeter. Solution calorimeter System v.1.2 software is used. Samples are weighed into glass crushing ampoules and are sealed using silicone rubber plugs and hot wax. Experiments are carried out in 100 mL of methanol at 25° C. The measurement of the heats of solution of the samples is both preceded and followed by calibrations using an internal heater. The heats of solution are calculated using dynamic of calibration model.

[9] = Approximate solubility by solvent aliquot addition; format: physicochemical; conditions: in both methanol and water, room temperature
Method: Solution calorimetry (SolCal) analyses are also performed to determine the heats of solution in methanol at 25° C. and confirm the stable form at this temperature (see Example 15).
Experimental: Approximate Solubility
A weighed sample is treated with aliquots of the test solvent at room temperature. The mixture is sonicated between additions to facilitate dissolution. Complete dissolution of the test material is determined by visual inspection. Solubility is estimated based on the total solvent used to provide complete dissolution. The actual solubility may be greater than the value calculated because of the use of solvent aliquots that are too large or due to a slow rate of dissolution.

Which “solid form after heat exposure” value [1] does the source give for `Cl.c1ccc2cc([C@]34CNC[C@H]3C4)ccc2c1` [mixture of Forms A and B, (1R,5S)-1-(naphthalen-2-yl)-3-azabicyclo[3.1.0]hexane hydrochloride] here?
The value was “completely converts to Form A”.

With `Cl.c1ccc2cc([C@]34CNC[C@H]3C4)ccc2c1` [Crystalline Form C, (1R,5S)-1-(naphthalen-2-yl)-3-azabicyclo[3.1.0]hexane hydrochloride] as the compound, how does the “transition temperature Tt,C→A” value [2] read?
Its value is “between 2 °C and ambient temperature”.

And the “solid form by XRPD after accelerated stress” value ([3]; 40° C./75% RH, hydrochloride)?
The value was “converts to a mixture of Crystalline Forms A and B”.

And the “solid form by XRPD after ambient storage” value [4]?
Its value is “remains unchanged”.

For `c1ccc2cc([C@]34CNC[C@H]3C4)ccc2c1` [(1R,5S)-1-(naphthalen-2-yl)-3-azabicyclo[3.1.0]hexane], which “potency towards norepinephrine reuptake (NE) among the three reuptakes” value [5] is on record?
The value was “most potent”.

What about the “potency towards dopamine reuptake (DA) relative to norepinephrine reuptake” value [6] of the same compound?
The value was “one-sixth as potent”.

And the “potency towards serotonin reuptake (5-HT) relative to norepinephrine reuptake” value [7]?
The value was “one-fourteenth as much”.

Which results are given for `Cl.c1ccc2cc([C@]34CNC[C@H]3C4)ccc2c1` [Crystalline Form B, (1R,5S)-1-(naphthalen-2-yl)-3-azabicyclo[3.1.0]hexane hydrochloride]?
relative thermodynamic stability versus Crystalline Form A from heats of solution [8]: more stable; enthalpy of the transition from Form B to Form A calculated from the SolCal data ([8]; methanol): about 15.9 J/g; average heat of solution ([8]; methanol, triplicate, endothermic, hydrochloride): 64.567 J/g; average heat of solution ([8]; methanol, average of three replicates, hydrochloride): 64.567 J/g; ΔH2 (heat of solution) ([8]; methanol, calculated using the calibration after breaking the sample vial, single replicates, hydrochloride): 64.985 J/g and 65.057 J/g and 65.421 J/g; ΔH1 (heat of solution) ([8]; methanol, calculated using the calibration before breaking the sample vial, single replicates, hydrochloride): 64.004 J/g and 63.471 J/g and 64.461 J/g; ΔHmean (heat of solution) ([8]; methanol, mean of the two calibrations, single replicates, hydrochloride): 64.495 J/g and 64.264 J/g and 64.941 J/g; apparent solubility compared with Crystalline Form A [9]: lower apparent solubility; solid form by XRPD after accelerated stress ([3]; 30° C./56% RH): remain unchanged; solid form by XRPD after accelerated stress ([3]; 40° C./75% RH, hydrochloride): remain unchanged
